The values below come from ChEMBL document CHEMBL6120973 (J Med Chem, 2024).

≈ marks a conversion by molar mass, not a printed value.

Data set [1] concerns Human immunodeficiency virus 1. The experiment in a line: Antiviral activity against HIV-1 harboring RT Y181C mutant infected in human MT4 cells assessed as protection against virus-induced cytopathic effect incubated for 5 days by MTT assay. The settings on record: Human immunodeficiency virus 1, MT4, 120 h. In kind it is functional, organism-based.
Data set [2] can be described thus: Metabolic stability in dog liver microsomes assessed as half-life at 0.1 uM preincubated for 10 mins followed by NADPH addition and measured upto 60 mins by LC-MS/MS analysis. In kind it is ADME, Canis lupus familiaris, Microsome. The settings on record: time < 70 min. (In general: Liver microsomes are vesicles of endoplasmic reticulum, rich in cytochrome P450 enzymes.)

The nature of data set [3]: Cytotoxicity against human MT4 cells assessed as reduction in cell viability measured after 5 days by MTT assay. The settings on record: MT4 cells. (In general: Formazan colour is commonly taken as a measure of viable cells.)
A short description of data set [4]: Acute toxicity in female ICR mouse assessed as effect on pathological damage in spleen at 2000 mg/kg, IG measured after 14 days by H and E staining based analysis. In kind it is organism-based. The settings on record: in vivo, po, 336 h, time 14 day.
The nature of data set [5]: Solubility of compound in phosphate buffer at pH 7.4 measured after 24 hrs by HPLC analysis. The class given is physicochemical.
Data set [6] in a line: Solubility of compound in Watson's distilled pure water measured after 24 hrs by HPLC analysis. In kind it is physicochemical.
The target of data set [7] is Cytochrome P450 3A4 (Homo sapiens, UniProt P08684). The data set can be described thus: Inhibition of CYP3A4 in human liver microsomes using testosterone as substrate preincubated for 10 mins followed by NADPH addition and measured after 15 mins by LC/MS/MS analysis.
Cytochrome P450 3A4, sequence (P08684 whole entry): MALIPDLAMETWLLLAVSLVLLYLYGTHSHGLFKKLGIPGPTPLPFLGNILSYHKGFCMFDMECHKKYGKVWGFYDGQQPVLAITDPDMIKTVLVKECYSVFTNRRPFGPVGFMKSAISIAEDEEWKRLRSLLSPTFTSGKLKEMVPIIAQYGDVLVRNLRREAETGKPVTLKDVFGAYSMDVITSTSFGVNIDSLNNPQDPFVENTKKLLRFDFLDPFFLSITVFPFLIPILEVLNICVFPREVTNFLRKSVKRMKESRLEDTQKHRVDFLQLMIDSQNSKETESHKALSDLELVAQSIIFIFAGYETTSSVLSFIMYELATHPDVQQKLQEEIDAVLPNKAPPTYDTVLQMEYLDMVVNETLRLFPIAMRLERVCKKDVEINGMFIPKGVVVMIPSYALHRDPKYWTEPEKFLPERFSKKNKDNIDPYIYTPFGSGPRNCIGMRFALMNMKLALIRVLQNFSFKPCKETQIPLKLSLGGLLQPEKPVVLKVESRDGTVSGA
In data set [8] the target is Cytochrome P450 2C9 (Homo sapiens, UniProt P11712). The experiment in a line: Inhibition of CYP2C9 in human liver microsomes preincubated for 10 mins followed by NADPH addition and measured after 15 mins by LC/MS/MS analysis.
Cytochrome P450 2C9, sequence (P11712 whole entry): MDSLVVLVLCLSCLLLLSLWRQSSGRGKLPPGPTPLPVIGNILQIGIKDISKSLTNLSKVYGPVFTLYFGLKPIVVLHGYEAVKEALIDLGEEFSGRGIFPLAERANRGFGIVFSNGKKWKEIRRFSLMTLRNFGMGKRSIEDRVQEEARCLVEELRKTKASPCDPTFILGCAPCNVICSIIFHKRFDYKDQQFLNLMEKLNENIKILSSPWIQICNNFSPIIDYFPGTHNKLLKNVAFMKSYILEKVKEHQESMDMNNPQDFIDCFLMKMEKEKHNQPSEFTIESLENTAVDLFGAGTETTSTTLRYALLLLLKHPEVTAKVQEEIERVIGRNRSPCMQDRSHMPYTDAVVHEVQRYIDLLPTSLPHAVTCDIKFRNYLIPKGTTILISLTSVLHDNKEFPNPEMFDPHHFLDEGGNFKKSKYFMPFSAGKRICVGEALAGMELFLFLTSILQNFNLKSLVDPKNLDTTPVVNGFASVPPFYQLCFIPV
In data set [9] the target is Human immunodeficiency virus type 1 reverse transcriptase (Human immunodeficiency virus 1, UniProt Q72547). The experiment in a line: Inhibition of recombinant wild type HIV-1 Reverse transcriptase incubated for 40 mins by Pico-green reagent based fluorescence analysis.
Data set [10] in a line: Acute toxicity in male ICR mouse assessed as effect on pathological damage in spleen at 2000 mg/kg, IG measured after 14 days by H and E staining based analysis. The class given is organism-based. The settings on record: in vivo, po, 336 h, time 14 day.
A short description of data set [11]: Acute toxicity in female ICR mouse assessed as effect on pathological damage in lung at 2000 mg/kg, IG measured after 14 days by H and E staining based analysis. The class given is organism-based. Conditions: in vivo, po, 336 h, time 14 day.
Data set [12] has as its system Human immunodeficiency virus 1. The data set can be described thus: Antiviral activity against HIV-1 harboring RT E138K mutant infected in human MT4 cells assessed as protection against virus-induced cytopathic effect incubated for 5 days by MTT assay. The class given is functional, organism-based. The settings on record: Human immunodeficiency virus 1, MT4, 120 h. On the technique in general: Protection from cytopathic effect is a common read-out in antiviral testing.

Data set [13] is described as follows: Acute toxicity in female ICR mouse assessed as effect on pathological damage in kidney at 2000 mg/kg, IG measured after 14 days by H and E staining based analysis. The settings on record: in vivo, po, 336 h, time 14 day. The class given is organism-based.

With `Cc1cc(-c2ccncc2)cc(C)c1Nc1nc(Nc2ccc(C#N)cc2)ncc1-c1cn[nH]c1`, the EC50 in data set [1] was 13 nM; in data set [12], 11 nM. The half-life at 0.1 µM in data set [2] turned out to be 58.8 min. For the same compound, the CC50 at 120 h in [3] was greater than 273000 nM. Also, the Activity entry in data set [4], in data set [10], in data set [11] and in data set [13] was “Non-toxic” throughout. In addition, the solubility at 24 h in data set [5] was less than 1 µg/mL; in data set [6], 1.3 µg/mL (≈ 2.84 µM). The IC50 is greater than 50000 nM in data set [7], greater than 50000 nM in [8] and 49 nM in [9].

Broadly, the EC50 is the concentration that produces a half-maximal response. One may read the half-life as how long it takes for the measured level to halve. Usually CC50 stands for the concentration that lowers cell viability or growth by half. By solubility is commonly meant the concentration that dissolves in the medium under given conditions. Lower therefore signals a poorly soluble substance. By IC50 is commonly meant the concentration that gives 50% inhibition.
